Measurements published in patent publication US20250170099A1, “TREATMENT OF POSTNATAL DEPRESSION” (GH RESEARCH IRELAND LIMITED, priority 2022, published 2025).

Assays:
[1] = system: human plasma protein; assay: Binding to human plasma protein (unbound fraction); format: in vitro ADME
Experimental: Binding to human plasma protein was determined. Reported are the unbound fraction (fu) for three replicates as well as the mean unbound fraction, the standard deviation and the mean % recovery (Table 8).

[2] = system: human hepatocytes; assay: Metabolic stability in Hμrel human hepatocyte co-culture; format: in vitro ADME; details: for relative LC/MS peak area: 0 h
Experimental: The incubations were performed using 1 and 10 μM initial concentrations and sampling at 0, 1, 2, 4, 8, 24, 48, and 72 hours (h) time points. The samples were analysed using UPLC/QE-orbitrap-MS.

[3] = system: human hepatocytes; assay: Metabolite identification in human hepatocytes; format: in vitro ADME; details: for relative proportion of compounds identified: 5-MeO-DMT 10 μM, up to 120 minutes
Experimental: All samples were stored at −80° C. (nominal) prior to analysis.
Appropriate blank and control samples were also analysed. […] (nominal).

[4] = Pharmacokinetics of 5-MeO-DMT and bufotenine after inhalation; format: in vivo, human

## 5-Methoxyindole acetic acid [5-MIAA]
[1]
  plasma binding (mean fraction unbound): ~50%
[1]; from glomerular filtration rate 90-120 ml/min
  time for removal from circulation by renal clearance: 1 to 2 h
[2]
  disappearance with stromal cell controls: no disappearance
[2]; 1 μM, human hepatocytes
  in vitro intrinsic clearance: 0.15 μl/min/million cells
[2]; 72 h, hepatocytes, 1 and 10 μM
  remaining abundance: 75-82%
[3]
  presence in subsequent assays: predominant metabolite

## COc1ccc2[nH]cc(CC[N+](C)(C)[O-])c2c1 [5-MeO-DMT-N-oxide]
[3]
  relative proportion of compounds identified: 1%

## COc1ccc2[nH]cc(CCO)c2c1 [5-methoxytryptophol, 5-Methoxyindole-3-ethanol]
[2]
  disappearance with stromal cell controls: no disappearance
[2]; 1 μM, hepatocytes
  relative LC/MS peak area: 100%
[2]; 1 μM, stromal cells
  relative LC/MS peak area: 100%
[2]; 10 μM, hepatocytes
  relative LC/MS peak area: 100%
[2]; 10 μM, stromal cells
  relative LC/MS peak area: 100%
[3]
  presence in subsequent assays: repeatedly failed to detect
  relative proportion of compounds identified: 25%

## CN(C)CCc1c[nH]c2ccc(O[C@@H]3O[C@H](C(=O)O)[C@@H](O)[C@H](O)[C@H]3O)cc12 [Bufotenine glucuronide]
[3]
  detection in the hepatocyte assay: not detected

## CN(C)CCc1c[nH]c2ccc(O)cc12 [bufotenine, Bufotenine]
[4]; 15 minutes after administration of 5-MeO-DMT
  detection in human serum: In no case is it detected
[4]; from 15 min after 5-MeO-DMT inhalation, LLOQ
  bufotenine blood concentration: < 25 pg/mL
[3]
  relative proportion of compounds identified: 5%
